Results taken from patent publication US20250262167A1, “COMPOUNDS, TARGETS AND PATHWAYS FOR MACROPHAGE MODULATION” (Massachusetts Institute of Technology, priority 2020, published 2025).

System: mouse bone marrow macrophages (BMMs)
Experiment: Development and function of TAM/M2-like macrophages in vitro (qPCR, flow cytometry)
Assay type: cell-based
Method: DEGs were identified by edgeR at P<0.05 with at least 2 fold-change. Data for genes that were not classified as differentially expressed are plotted in black. […] Mouse BMMs were cultured in normal medium with or without 2.5 μM thiostrepton for 24 hrs (group 1), or cultured in B16F10 tumor cell conditioned medium (CM) with or without 2.5 μM thiostrepton for 24 hrs (group 2), or cultured with B16F10 tumor cell CM for 24 hrs first and then treated with 2.5 μM thiostrepton for another 24 hrs (group 3). The transcript levels of the indicated genes were quantified by qPCR. Data were summarized from two independent experiments. […] Mouse BMMs were treated with thiostrepton for 24 hrs. Untreated and treated macrophages were co-cultured with equal number of B16F10 melanoma cells for 12 hrs. The number of tumor cells were quantified by flow cytometry after subtracting macrophages from total number of cells. Data were summarized from three independent experiments. ** P<0.01 by T-test.
Expression of MHCII, CD80, iNOS, Arg1 and CD206 were quantified by flow cytometry. Shown are representative staining profiles of treated (red) and untreated (dark) TAMs from two independent experiments. […] Alternatively, mouse BMMs were polarized with IL-4/IL-13 (group 3) or lactic acid (group 5) for 24 hrs first and then either not treated or treated with […] thiostrepton for another 24 hrs. The transcript levels of the indicated genes were quantified by qPCR. Data are summarized from two independent experiments.
Mouse BMMs were not treated or treated with […] thiostrepton for 24 hours in normal medium (group 1) or in the presence of IL4/IL13 (group 2), or mouse BMMs were polarized with IL4/IL13 for 24 hours and then either not treated or treated with […] thiostrepton for 24 hours (group 3). RNA was isolated and the transcript levels of the indicated genes were quantified by PCR. Data, shown as mean±s.d., were summarized from two independent experiments. * P<0.05 and ** P<0.01 by T-test. […] Data are shown as mean±s.e.m. FIGS. 19C-19D show flow cytometry analysis of TAM (F4/80^+CD11b^+Ly6C^−Ly6G^−), inflammatory monocytes (F4/80′^intCD11b^+Ly6C^+Ly6G^−) and monocytes (F4/80^−CD11b^+Ly6C^+Ly6G^+) in the tumors of mice treated with DMSO, TA99, cucurbitacin I, and cucurbitacin I plus TA99 18 days after tumor engraftment. Shown are representative F4/80 versus CD11b staining profiles gating on CD45+ cells and MHCII histograms gating on macrophages from c.
Mouse bone marrow-derived macrophages (mBMM) were prepared as described previously^54. Briefly, fresh bone marrow cells were isolated from B6 mice. Cells were plated into 6-well plate with 1×10^6/mL in complete RPMI with 2-mercaptoethanol and cultured for 6 days with fresh medium change every 2 days. mBMMs were differentiated to resemble TAMs in the presence of 10 ng/mL mIL-4 and mIL-13 (Peprotech) or 25 mM lactate acid for 24 hrs or tumor conditioned medium (CM). To prepare CM, 70% confluent B16F10 cultured were replaced with fresh medium and the tumor medium was collected and filtered ([…]) 24 hrs later. The mixture of 3 volumes of tumor medium with 1 volume of complete RPMI for mBMM serves as the CM. Expression of Arg, Fizz1 and Vegfa were quantified by qPCR to assess the development of TAMs. Other genes of Tnf, Il1b, Nos2, Cxcl2, Ccl5, Ym1 and Tgfb serve as macrophage activating markers. To assay the tumor growth inhibition, mBMMs (10,000 cells per well in 96 well plate) were treated with thiostrepton for 24 hrs and then cocultured with equal number of B16 melanoma cells in fresh complete RPMI for 12 hrs. The conditioned medium treated or not treated with thiostrepton were collected and filtered. The numbers of B16 melanoma cells were cultured for 12 hrs with conditioned medium or conditioned medium heated at 95° C. for 5 min. Tumor cells were quantified by flow cytometry to determine the macrophage-dependent killing function. […]

[1] = BMMs in B16F10 conditioned medium, 2.5 μM, 24 hrs, qPCR
[2] = BMMs in B16F10 conditioned medium, flow cytometry
[3] = IL-4/IL-13 and lactic acid-polarized BMMs, qPCR

C=C(NC(=O)C(=C)NC(=O)c1csc(C2=N[C@@H]3c4csc(n4)[C@H]4NC(=O)c5csc(n5)[C@H]([C@](C)(O)[C@@H](C)O)NC(=O)[C@H]5CSC(=N5)/C(=C/C)NC(=O)[C@H]([C@@H](C)O)NC(=O)c5csc(n5)[C@]3(CC2)NC(=O)[C@H](C)NC(=O)C(=C)NC(=O)[C@H](C)NC(=O)[C@H]([C@@H](C)CC)N[C@@H]2C=Cc3c([C@H](C)O)cc(nc3[C@H]2O)C(=O)O[C@@H]4C)n1)C(N)=O [Thiostrepton]
expression of M1-associated genes Tnf, Il1b, Cxcl2 and Nos2 [1]: up-regulated | expression of TAM/M2-associated genes Arg1, Fizz1, Vegfa, Ym1 and Tgfb [1]: inhibited | ARG1 [2]: down-regulation | MHCII, CD80 and iNOS [2]: up-regulation | expression of Arg1, Fizz1, Ym1 and Tgfb [3]: inhibited | expression of Tnf, Il1b, Cxcl2 and Ccl5 [3]: elevated
